Measurements as given in US11813305B2, “Endoplasmic reticulum stress as a predictive tool in cancer therapy and a combination therapy for the treatment of cancer” (IMMUNE SYSTEM KEY LTD., priority 2016, dated 2023).
Square brackets hold non-standard residues; d marks the D form. Peptide text beside a SMILES is read from it.

How the values were obtained:
[1] = human, in vivo
Description: The dose escalation study followed a traditional “3+3” scheme and included doses of 6, 12, 24, 48, and 96 mg/m^2 intravenous (i.v.) dTCApFs, 3 times/week in consecutive 28-day cycles. In all 3-patient cohorts, there were 2-4 weeks between the first dose for the first and second patients, and ≥1 week for the third patient. New dose levels started after follow up of ≥28 days for 3 patients at the previous level. MTD was defined as the highest dose level at which ≥1 of 3 subjects experience a DLT during their first cycle of treatment. […] In addition, PK parameters, including area under the curve (AUC), maximal plasma concentration (Cmax), and plasma half-life (t1/2) were determined. PK parameters were estimated using non-compartmental models.
dTCApFs powder for solution for injection is supplied as a lyophilized 5 mL vial containing either 15 mg (7.5 mg/mL) or 10 mL vial containing 80 mg (40 mg/mL) of the active substance with 4.8% mannitol, for reconstitution to a final volume of 2 mL with water for injection per vial as described above. The reconstituted 2 mL vial of dTCApFs powder for solution for injection must thereafter be diluted to a final volume 100 mL in aqueous Dextrose 5% for infusion for dose levels up to and including 48 mg/m2. For dose levels above 48 mg/m2, the final dilution volume was 250 mL. dTCApFs for injection was administered intravenously (iv) during 60 minutes.
PK parameters, including AUC (0-24), Cmax, Cmin, Tmax and t1/2 are estimated using non-compartmental models. Comparisons across dose levels are made to assess proportionality.

[2] = Safety and tolerability (adverse events, DLT, MTD), phase I study; format: in vivo, human
Description: The present clinical study is a formal open label phase I dose escalation study. The primary objective was to determine the maximum tolerated dose (MTD) and safety profile of dTCApFs. Assessments included drug exposure, adverse events (AEs; graded according to the Common Terminology Criteria for Adverse Events (CTCAE), and characterization of dose-limiting toxicities (DLTs). Other objectives included assessment of serum levels of angiogenic factors after dTCApFs administration, pharmacokinetics (PK) and pharmacodynamics (PD) analyses, as well as assessment of receptor staining and tumor response. […]
Subjects with evaluable or measurable disease are assessed according to the response evaluation criteria in solid tumors (RECIST) version 1.1 every 2 cycles, where a cycle is defined as 4 weeks of treatment with three administrations per week. Tumor lesion measurements and changes from baseline are summarized by cycle and dose cohort.

## CC(C)C[C@@H](NC(=O)[C@H](NC(=O)[C@@H](CO)NC(=O)[C@H]1CCCN1C(=O)[C@@H](CC(C)C)NC(=O)[C@@H](Cc1ccccc1)NC(=O)[C@@H](Cc1ccccc1)NC(=O)[C@H](NC(=O)[C@@H](Cc1c[nH]c2ccccc12)NC(=O)[C@H](N)Cc1c[nH]c2ccccc12)[C@H](C)O)[C@H](C)O)C(=O)N[C@H](Cc1c[nH]c2ccccc12)C(=O)N[C@H](CCC(=O)O)C(=O)N[C@H](CCCNC(=N)N)C(=O)N[C@H](CCCCN)C(=O)O [dTCApFs, Trp Trp Thr Phe Phe Leu Pro Ser Thr Leu Trp Glu Arg Lys] (H-[dW][dW][dT][dF][dF][dL][dP][dS][dT][dL][dW][dE][dR][dK]-OH; N-terminus and C-terminus assumed)
[1]
  relation of t1/2, Cmax and AUC0 to dose: linearly related to dose
[2]; 6 mg/m^2, n = 3
  Adverse event Grade 1: Abdominal pain: 0
  Adverse event Grade 1: Anemia: 3
  Adverse event Grade 1: Bowel obstruction: 1
  Adverse event Grade 1: Dehydration: 0
  Adverse event Grade 1: Diarrhea: 0
  Adverse event Grade 1: Fatigue: 0
  Adverse event Grade 1: GI hemorrhage: 1
  Adverse event Grade 1: Hypertension: 3
  Adverse event Grade 1: Increased INR: 0
  Adverse event Grade 1: Neuropathy: 0
  Adverse event Grade 1: Vomiting: 2
  Adverse event Grade 2: ALT increase: 0
  Adverse event Grade 2: AST increase: 0
  Adverse event Grade 2: Bilirubin increase: 0
  Adverse event Grade 2: Cough: 0
  Adverse event Grade 2: Liver dysfunction: 0
  Adverse event Grade 2: Pain, leg: 0
  Adverse event Grade 2: Pain, upper back: 0
  Adverse event Grade 2: Pruritus: 0
  Adverse event Grade 2: Urinary tract infection: 0
  Adverse event Grade 2: Urticaria: 0
  Adverse event Grade 3: Bilirubin increase: 0
  Adverse event Grade 3: Bowel obstruction: 1
  Adverse event Grade 3: Diarrhea: 0
  Adverse event Grade 3: GI hemorrhage: 1
  Adverse event Grade 3: Hypertension: 2
  Adverse event Grade 3: Increased INR: 0
  Adverse event Grade 4: Vomiting: 0
[2]; 12 mg/m^2, n = 3
  Adverse event Grade 1: Abdominal pain: 1
  Adverse event Grade 1: Anemia: 0
  Adverse event Grade 1: Bowel obstruction: 0
  Adverse event Grade 1: Dehydration: 0
  Adverse event Grade 1: Diarrhea: 2
  Adverse event Grade 1: Fatigue: 1
  Adverse event Grade 1: GI hemorrhage: 0
  Adverse event Grade 1: Hypertension: 1
  Adverse event Grade 1: Increased INR: 0
  Adverse event Grade 1: Neuropathy: 1
  Adverse event Grade 1: Vomiting: 0
  Adverse event Grade 2: ALT increase: 0
  Adverse event Grade 2: AST increase: 0
  Adverse event Grade 2: Bilirubin increase: 0
  Adverse event Grade 2: Cough: 1
  Adverse event Grade 2: Liver dysfunction: 0
  Adverse event Grade 2: Pain, leg: 2
  Adverse event Grade 2: Pain, upper back: 0
  Adverse event Grade 2: Pruritus: 0
  Adverse event Grade 2: Urinary tract infection: 1
  Adverse event Grade 2: Urticaria: 0
  Adverse event Grade 3: Bilirubin increase: 0
  Adverse event Grade 3: Bowel obstruction: 0
  Adverse event Grade 3: Diarrhea: 1
  Adverse event Grade 3: GI hemorrhage: 0
  Adverse event Grade 3: Hypertension: 1
  Adverse event Grade 3: Increased INR: 0
  Adverse event Grade 4: Vomiting: 0
[2]; 24 mg/m^2, n = 3
  Adverse event Grade 1: Abdominal pain: 2
  Adverse event Grade 1: Anemia: 0
  Adverse event Grade 1: Bowel obstruction: 0
  Adverse event Grade 1: Dehydration: 0
  Adverse event Grade 1: Diarrhea: 0
  Adverse event Grade 1: Fatigue: 0
  Adverse event Grade 1: GI hemorrhage: 0
  Adverse event Grade 1: Hypertension: 1
  Adverse event Grade 1: Increased INR: 0
  Adverse event Grade 1: Neuropathy: 1
  Adverse event Grade 1: Vomiting: 0
  Adverse event Grade 2: ALT increase: 0
  Adverse event Grade 2: AST increase: 0
  Adverse event Grade 2: Bilirubin increase: 0
  Adverse event Grade 2: Cough: 0
  Adverse event Grade 2: Liver dysfunction: 0
